From PubChem BioAssay (NCI)
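Exposure lasted 48 hours, with cells grown in 96-well plates and compounds tested at five concentrations. At the TGI there is no net growth.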

Columns and labels:
Assay in all cases: NCI anticancer screen, dose series, 48 h
CCRF-CEM leukemia = tested on: CCRF-CEM leukemia
SN12C renal = tested on: SN12C renal
MDA-MB-231 breast = tested on: MDA-MB-231 breast
HL-60(TB) leukemia = tested on: HL-60(TB) leukemia
OVCAR-5 ovarian = tested on: OVCAR-5 ovarian
MCF7 breast = tested on: MCF7 breast
786-0 renal = tested on: 786-0 renal
HS 578T breast = tested on: HS 578T breast
NCI-H226 lung = tested on: NCI-H226 lung
SF-268 CNS = tested on: SF-268 CNS
K-562 leukemia = tested on: K-562 leukemia
M14 melanoma = tested on: M14 melanoma
SK-OV-3 ovarian = tested on: SK-OV-3 ovarian
HCC-2998 colon = tested on: HCC-2998 colon
EKVX NSCLC = tested on: EKVX NSCLC
A549 NSCLC = tested on: A549 NSCLC
MOLT-4 leukemia = tested on: MOLT-4 leukemia
HOP-62 NSCLC = tested on: HOP-62 NSCLC
NCI-H23 lung = tested on: NCI-H23 lung
SNB-75 CNS = tested on: SNB-75 CNS
U251 CNS = tested on: U251 CNS
NCI/ADR-RES ovarian = tested on: NCI/ADR-RES ovarian
UACC-62 melanoma = tested on: UACC-62 melanoma
SK-MEL-2 melanoma = tested on: SK-MEL-2 melanoma
PC-3 prostate = tested on: PC-3 prostate
SR leukemia = tested on: SR leukemia
MDA-N = tested on: MDA-N
OVCAR-4 ovarian = tested on: OVCAR-4 ovarian
MALME-3M melanoma = tested on: MALME-3M melanoma
TK-10 renal = tested on: TK-10 renal
A498 renal = tested on: A498 renal
NCI-H460 lung = tested on: NCI-H460 lung
UO-31 renal = tested on: UO-31 renal
HCT-15 colon = tested on: HCT-15 colon
CAKI-1 renal = tested on: CAKI-1 renal
OVCAR-8 ovarian = tested on: OVCAR-8 ovarian
MDA-MB-435 = tested on: MDA-MB-435
SF-539 CNS = tested on: SF-539 CNS
HT29 colon = tested on: HT29 colon
T-47D breast = tested on: T-47D breast
IGROV1 ovarian = tested on: IGROV1 ovarian
UACC-257 melanoma = tested on: UACC-257 melanoma
COLO 205 colon = tested on: COLO 205 colon
ACHN renal = tested on: ACHN renal
SNB-19 CNS = tested on: SNB-19 CNS
HCT-116 colon = tested on: HCT-116 colon
KM12 colon = tested on: KM12 colon
SK-MEL-5 melanoma = tested on: SK-MEL-5 melanoma
RPMI-8226 leukemia = tested on: RPMI-8226 leukemia
SF-295 CNS = tested on: SF-295 CNS
SK-MEL-28 melanoma = tested on: SK-MEL-28 melanoma
SW-620 colon = tested on: SW-620 colon
DU-145 prostate = tested on: DU-145 prostate
NCI-H522 lung = tested on: NCI-H522 lung
LOX IMVI melanoma = tested on: LOX IMVI melanoma
RXF 393 renal = tested on: RXF 393 renal
HOP-92 NSCLC = tested on: HOP-92 NSCLC
OVCAR-3 ovarian = tested on: OVCAR-3 ovarian

Measured: TGI

O=C(/C=C/c1cccs1)c1ccc(Cl)s1
52.3 µM: MOLT-4 leukemia
35.2 µM: HCT-15 colon
51.7 µM: SW-620 colon
59.5 µM: CCRF-CEM leukemia
47.6 µM: SNB-19 CNS
51.2 µM: NCI-H23 lung
34.8 µM: SN12C renal
44 µM: RPMI-8226 leukemia
38.6 µM: UO-31 renal
59.3 µM: SK-MEL-28 melanoma
> 100 µM: MDA-MB-231 breast | OVCAR-5 ovarian | MCF7 breast | HS 578T breast | SF-268 CNS | K-562 leukemia | M14 melanoma | SK-OV-3 ovarian | EKVX NSCLC | A549 NSCLC | HOP-62 NSCLC | SNB-75 CNS | U251 CNS | NCI/ADR-RES ovarian | UACC-62 melanoma | SK-MEL-2 melanoma | PC-3 prostate | OVCAR-4 ovarian | MALME-3M melanoma | TK-10 renal | A498 renal | NCI-H460 lung | CAKI-1 renal | OVCAR-8 ovarian | SF-539 CNS | T-47D breast | UACC-257 melanoma | ACHN renal | SK-MEL-5 melanoma | SF-295 CNS | DU-145 prostate
44.3 µM: KM12 colon
63.2 µM: SR leukemia
32.2 µM: HCT-116 colon
85.1 µM: NCI-H226 lung
> 10 µM: 786-0 renal | MDA-N | HT29 colon | IGROV1 ovarian | COLO 205 colon
64.1 µM: HL-60(TB) leukemia
34.7 µM: HCC-2998 colon
37.3 µM: MDA-MB-435

O=C1c2cscc2C(=O)c2c(OCc3ccccc3)ccc(OCc3ccccc3)c21
> 100 µM: NCI-H522 lung | CCRF-CEM leukemia | SN12C renal | MDA-MB-231 breast | HL-60(TB) leukemia | OVCAR-5 ovarian | MCF7 breast | LOX IMVI melanoma | 786-0 renal | HS 578T breast | NCI-H226 lung | SF-268 CNS | RXF 393 renal | K-562 leukemia | M14 melanoma | SK-OV-3 ovarian | HCC-2998 colon | EKVX NSCLC | A549 NSCLC | MOLT-4 leukemia | HOP-62 NSCLC | NCI-H23 lung | SNB-75 CNS | NCI/ADR-RES ovarian | UACC-62 melanoma | PC-3 prostate | SR leukemia | MDA-N | OVCAR-4 ovarian | MALME-3M melanoma | TK-10 renal | HOP-92 NSCLC | NCI-H460 lung | OVCAR-3 ovarian | UO-31 renal | CAKI-1 renal | OVCAR-8 ovarian | MDA-MB-435 | SF-539 CNS | HT29 colon | T-47D breast | IGROV1 ovarian | UACC-257 melanoma | COLO 205 colon | ACHN renal | SNB-19 CNS | HCT-116 colon | KM12 colon | SK-MEL-5 melanoma | RPMI-8226 leukemia | SF-295 CNS | SK-MEL-28 melanoma | SW-620 colon | DU-145 prostate
